Source: PubChem BioAssay (NCI)
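Following 48 hours of exposure in 96-well plates, responses at five concentrations were used to interpolate endpoints linearly. At the GI50, growth is halved. TGI is the concentration that stops growth completely.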

Legend:
Experiment in all cases: growth of human tumour cells (NCI), 48 h
OVCAR-8 ovarian = test system: OVCAR-8 ovarian
OVCAR-5 ovarian = test system: OVCAR-5 ovarian
786-0 renal = test system: 786-0 renal
SK-MEL-5 melanoma = test system: SK-MEL-5 melanoma
OVCAR-4 ovarian = test system: OVCAR-4 ovarian
MALME-3M melanoma = test system: MALME-3M melanoma
SK-OV-3 ovarian = test system: SK-OV-3 ovarian
UO-31 renal = test system: UO-31 renal
SNB-19 CNS = test system: SNB-19 CNS
SK-MEL-28 melanoma = test system: SK-MEL-28 melanoma

| SMILES | GI50 (OVCAR-8 ovarian) | TGI (OVCAR-8 ovarian) | GI50 (OVCAR-5 ovarian) | TGI (OVCAR-5 ovarian) | GI50 (786-0 renal) | TGI (786-0 renal) | GI50 (SK-MEL-5 melanoma) | TGI (SK-MEL-5 melanoma) | GI50 (OVCAR-4 ovarian) | TGI (OVCAR-4 ovarian) | GI50 (MALME-3M melanoma) | TGI (MALME-3M melanoma) | GI50 (SK-OV-3 ovarian) | TGI (SK-OV-3 ovarian) | GI50 (UO-31 renal) | TGI (UO-31 renal) | GI50 (SNB-19 CNS) | TGI (SNB-19 CNS) | GI50 (SK-MEL-28 melanoma) | TGI (SK-MEL-28 melanoma) |
| --- | --- | --- | --- | --- | --- | --- | --- | --- | --- | --- | --- | --- | --- | --- | --- | --- | --- | --- | --- | --- |
| O=C(NNc1nc(Cl)nc(N2CCN(C(c3ccccc3)c3ccccc3)CC2)n1)c1ccccc1 | 1.99 µM | 4.67 µM | 12.7 µM | 40.7 µM | 2.21 µM | 4.84 µM | 5.35 µM | 18.8 µM | 1.68 µM | 3.14 µM | 1.69 µM | 3.34 µM | 2.47 µM | 6.94 µM | 2.54 µM | 17.2 µM | 1.76 µM | 3.33 µM | 1.75 µM | 3.25 µM |
| N#CCC(=O)Nc1cccc(C(F)(F)F)c1 | – | > 100 µM | – | > 100 µM | – | > 100 µM | – | > 100 µM | – | > 100 µM | – | > 100 µM | – | > 100 µM | – | > 100 µM | – | > 100 µM | – | > 100 µM |
| N=C1C(c2nc(-c3ccc(Br)cc3)cs2)=C(O)CN1Cc1cccnc1 | 28.8 µM | > 100 µM | 2.66 µM | 42.8 µM | 15.3 µM | 34.3 µM | 4.35 µM | 32.5 µM | 25.1 µM | > 100 µM | 14.6 µM | > 100 µM | 25.3 µM | > 100 µM | 19.7 µM | > 100 µM | 40.1 µM | > 100 µM | 15.7 µM | 51.7 µM |
| Cc1cc(-c2ncc(CC(=O)Nc3ccc(-c4cnccn4)cn3)cc2C)ccn1 | 25.6 µM | > 100 µM | 26.3 µM | > 100 µM | > 100 µM | > 100 µM | 6.69 µM | 29.6 µM | 6.11 µM | > 100 µM | 21.2 µM | > 100 µM | > 100 µM | > 100 µM | 12.7 µM | > 100 µM | 34.6 µM | > 100 µM | 28.2 µM | > 100 µM |
| CCOC(=O)c1ccc(NC(=O)N2CC(C)OC(C)C2)cc1 (stereo not given) | > 100 µM | > 100 µM | > 100 µM | > 100 µM | > 100 µM | > 100 µM | > 100 µM | > 100 µM | > 100 µM | > 100 µM | > 100 µM | > 100 µM | > 100 µM | > 100 µM | > 100 µM | > 100 µM | > 100 µM | > 100 µM | > 100 µM | > 100 µM |
| CCOc1cc2ncc(C#N)c(Nc3ccc(OCc4cccc(F)c4)c(Cl)c3)c2cc1NC(=O)CC1CCSS1 (stereo not given) | 6.36 µM | > 25 µM | > 25 µM | > 25 µM | > 13.8 µM | > 25 µM | 2.39 µM | > 25 µM | 0.539 µM | 1.36 µM | > 22.3 µM | > 25 µM | 0.476 µM | 0.905 µM | 1.04 µM | > 25 µM | > 25 µM | > 25 µM | 1.2 µM | > 19.3 µM |
